Patent US5130450A, “Platinum complexes” (Nippon Kayaku Kabushiki Kaisha, priority 1990, dated 1992)

Key:
[1] = system: PC-3 cells; test: Growth inhibition of PC-3 cells derived from lung cancer, 72 h, methylene blue staining; type: cell-based
Method: (§1) After 24-hour incubation under the conditions of 37° C. and 5% CO2, 10 μl of the novel fat-soluble platinum complex was added in various concentrations and the PC-3 cells and SW-1116 cells were further cultured for 72 hours and 96 hours, respectively. Thereafter, the culture was drawn off from each well by using an aspirator, fixed with MeOH, then added with a 0.05% methylene blue/10 mM tris-(hydroxymethyl)aminomethanehydrochloric acid buffer solution (pH 8.5) at a rate of 100 μl/well and stained at room temperature for 30 minutes. Thereafter, each well was cleared of the staining solution by using an aspirator and washed three times with pure water. Then 3% hydrochloric acid solution was added at a rate of 200 μl/well, and after sealing, the culture was left at room temperature for about 24 hours and the pigment was extracted from the cells. The absorbance (A660) of each well at 660 nm was measured by a dynamic microplate reader, and the growth inhibition rate (%) at each concentration was calculated from the following equation. […] [formula]

[2] = system: SW-1116 cells; test: Growth inhibition of SW-1116 cells derived from colon cancer, 96 h, methylene blue staining; type: cell-based
Method: as §1

[3] = in words, prior art; cited from earlier work
[4] = in words, clinical use; cited from earlier work

| Molecule | IC50 PC-3 [1] [µg/mL] | IC50 SW-1116 [2] [µg/mL] | Solubility in water [mg/mL] | antitumor effect [3] | side effects [4] |
| --- | --- | --- | --- | --- | --- |
| CC(C)(O)C(=O)[O-].CC(C)(O)C(=O)[O-].N[C@@H]1CCCC[C@H]1N.[Pt+2] (relative stereo) [compound No. 8, cis-Bis(2-hydroxy-2-methylpropionato)-trans-1,2-diaminocyclohexane platinum (II)] | 1.57 | 0.21 | – | – | – |
| CC(C)(CO)C(=O)[O-].CC(C)(CO)C(=O)[O-].N[C@@H]1CCCC[C@H]1N.[Pt+2] (relative stereo) [compound No. 10, cis-Bis(3-hydroxy-2,2-dimethylpropionato)-trans-1,2-diaminocyclohexane platinum (II)] | 0.50 | 0.065 | – | – | – |
| CC(O)(CCO)CC(=O)[O-].CC(O)(CCO)CC(=O)[O-].N[C@@H]1CCCC[C@H]1N.[Pt+2] (relative stereo) [compound No. 13, Cis-Bis(3,5-dihydroxy-3-methylvalerato)-trans-1,2-diaminocyclohexane platinum (II)] | 0.76 | 0.085 | – | – | – |
| CC(C)(CO)[C@@H](O)C(=O)NCCC(=O)[O-].CC(C)(CO)[C@@H](O)C(=O)NCCC(=O)[O-].N[C@@H]1CCCC[C@H]1N.[Pt+2] (stereo in doubt) [compound No. 17, cis-Bis[(R)-pantothenato]-trans-(R,R)-1,2-diaminocyclohexane platinum (II)] | 0.60 | 0.082 | – | – | – |
| CC(C)(CO)C(=O)[O-].CC(C)(CO)C(=O)[O-].C[C@@H](CN)CCN.[Pt+2] (stereo in doubt) [compound No. 20, cis-Bis(3-hydroxy-2,2-dimethylpropionato)(R)-1,4-diamino-2-methylbutane platinum (II)] | 0.35 | 0.36 | > 20 | – | – |
| CC(C)(CO)C([O-])C(=O)[O-].C[C@@H](CN)CCN.[Pt+2] (stereo in doubt) [compound No. 21, cis-[2-(2-Hydroxy-1,1-dimethylethyl)-glycolato-O,O']-(R)-1,4-diamino-2-methylbutane platinum (II)] | 0.53 | 0.37 | > 100 | – | – |
| N.N.[Cl][Pt][Cl] [cis-Platin, cis-dichlorodiammine platinum (II), reference compound] | 0.40 | 0.36 | – | very excellent antitumor effect | strong side effects such as renal toxicity and vomitting toxicity |
| CC(C)(CO)[C@@H](O)C(=O)[O-].CC(C)(CO)[C@@H](O)C(=O)[O-].NCC1(N)CCCCC1.[Pt+2] [compound No. 4, cis-Bis[(R)-2,4-dihydroxy-3,3-dimethylbutyrato]-1-amino-1-aminomethylcyclohexane platinum (II)] | 0.73 | 0.37 | > 100 | – | – |
| CC(C)(CO)C(O)C(=O)[O-].CC(C)(CO)C(O)C(=O)[O-].NC1CCCCC1N.[Pt+2] [compound No. 9, cis-Bis[(S)-2,4-dihydroxy-3,3-dimethylbutyrato]-trans-(R,R)-1,2-diaminocyclohexane platinum (II)] | 0.45 | 0.057 | – | – | – |
| CC(O)(CCO)CC(=O)[O-].CC(O)(CCO)CC(=O)[O-].N.N.[Pt+2] (stereo not drawn) [compound No. 12, cis-Bis(3,5-dihydroxy-3-methylvalerato)-diammine platinum (II)] | – | – | > 100 | – | – |
| CC(O)(CCO)CC(=O)[O-].CC(O)(CCO)CC(=O)[O-].NCC1(N)CCCCC1.[Pt+2] (stereo not drawn) [compound No. 15, cis-Bis(3,5-dihydroxy-3-methylvalerato)-1-amino-1-aminomethylcyclohexane platinum (II)] | 0.80 | 0.14 | > 100 | – | – |
| CC(C)(CO)C([O-])C(=O)[O-].NC1CCCCC1N.[Pt+2] (stereo not drawn) [compound No. 18, cis-[2-(2-Hydroxy-1,1-dimethylethyl)-glycolato-O,O']-trans-1,2-diaminocyclohexane platinum (II)] | 2.03 | 0.25 | – | – | – |
| CC(C)(CO)C(O)C(=O)[O-].CC(C)(CO)C(O)C(=O)[O-].CC(CN)CCN.[Pt+2] [compound No. 19, cis-Bis[(R)-2,4-dihydroxy-3,3-dimethylbutyrato]-(R)-1,4-diamino-2-methylbutane platinum (II)] | 0.40 | 0.36 | – | – | – |
| cis-Bis[(R)-2,4-dihydroxy-3,3-dimethylbutyrato]-trans-(R,R)-1,2-diaminocyclohexane platinum (II) [compound No. 5] | 0.60 | 0.060 | > 100 | – | – |
| cis-Bis[(R)-2,4-dihydroxy-3,3-dimethylbutyrato]diammine platinum (II) [compound No. 1] | – | – | > 100 | – | – |
